# According to EP1022029A1, “NOOTROPIC AGENT” (priority 1997, dated 1999):
# Read-outs that look alike come from different tables or passages of the source.
# Tests used:
# [1] = tested on: glutamate release from hippocampal slices; format: cell-based, guinea pig
# α7 receptor = target: T1, α7 receptor (Rattus norvegicus, UniProt Q05941); assay: ACh-evoked currents in α7 receptors expressed in Xenopus oocytes (two-electrode voltage clamp); format: cell-based; conditions: for normalized response (%): nef(+), n=5
# T1 construct: expressed in transfected cells; host or cells: Xenopus oocytes injected with in vitro transcribed mRNA
# T1 sequence (Q05941 23-502): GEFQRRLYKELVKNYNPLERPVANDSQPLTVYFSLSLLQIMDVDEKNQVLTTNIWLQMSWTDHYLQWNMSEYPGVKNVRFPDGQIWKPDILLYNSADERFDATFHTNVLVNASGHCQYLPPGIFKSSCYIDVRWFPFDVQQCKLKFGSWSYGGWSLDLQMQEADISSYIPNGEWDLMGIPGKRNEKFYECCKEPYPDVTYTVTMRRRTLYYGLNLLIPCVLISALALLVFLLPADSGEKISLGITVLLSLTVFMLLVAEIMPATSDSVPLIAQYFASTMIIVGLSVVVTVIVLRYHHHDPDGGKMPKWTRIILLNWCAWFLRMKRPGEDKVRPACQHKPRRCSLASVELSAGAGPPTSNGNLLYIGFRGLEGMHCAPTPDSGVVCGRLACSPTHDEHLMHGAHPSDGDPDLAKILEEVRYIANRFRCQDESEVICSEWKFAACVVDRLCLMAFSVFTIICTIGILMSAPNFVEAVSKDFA
# Protocol: Two-electrode voltage-clamp technique was used to record expression α4β2 or α7 receptors in oocytes. […] The holding voltage was -30 or -60 mV for α4β2-nAChR or α7-nAChR, respectively. Downward directions correspond to inward currents.
# (§1) mRNAs for the rat α4β2 receptor and α7 receptor, GLUR1, 2, 3 receptors, and NP152 and NP153 were constructed as described previously. Xenopus oocytes were manually separated from the ovary, and subjected to treatment with collagenase (0.5 mg/ml). Thereafter, the treated oocytes were incubated overnight in Barth's solution (in mM, 88 NaCl, 1 KCl, 2.4 NaHCO3, 0.82 MgSO4, 0.33 […], 0.41 CaCl2, and 7.5 Tris; pH 7.6). The oocytes were injected with the α4β2 or α7 receptor mRNA and incubated at 18°C. In some cases, NP152 and NP153 were co-expressed with the α4β2 and α7 receptors. The injected oocytes were incubated and transferred to a recording chamber 2-7 days after incubation and continuously superfused at room temperature (20-22°C) with a standard frog Ringer's solution [in mM: 115 NaCl, 2 KCl, 1.8 CaCl2, 5 HEPES; pH 7.0]. To remove the effect of endogenous muscarinic ACh receptor, 1 µM atropine was added to the extracellular solution. ACh-evoked currents were recorded by use of two-electrode voltage clamp techniques and an amplifier (GeneClamp-500, Axon Instrument, Inc. USA). The currents were analyzed on a microcomputer by pClamp software (Axon Instrument, Inc.; Version 6). From the results, an assessment was made as to whether nefiracetam actually acts on the nACh receptors.
# [2] = tested on: calcium-dependent chloride currents; assay: Calcium-dependent chloride currents in Xenopus oocytes; format: cell-based
# Protocol: In atropine-free frog Ringer's solution, acetylcholine (Ach) (100 µM) was administered to an oocyte that had not expressed ACh receptors. The holding voltage was -30 mV.
# In Xenopus oocyte expression systems, ACh-evoked currents are known to be composed of ACh-gated channel currents and calcium-dependent chloride currents (R. Miledi et al., J. Physiol. 357, 173, 1984). Nefiracetam, however, had no effect on calcium-dependent chloride currents induced by stimulation from the endogenous muscarinic ACh receptors (FIG. 2).
# [3] = tested on: excitatory postsynaptic potential in the brain; assay: Excitatory postsynaptic potential (PS) in the brain in vivo, hippocampal granular cell layer; parameters: species or system mice
# Protocol: A group of mice were provided. The head of each mouse was fixed, and electrodes were inserted into the granular cell layer of the hippocampal region. PS was recorded. Nefiracetam was intramuscularly injected (7.5 mg/kg). […] This effect was confirmed even after 960 minutes. Thus, the effect obtained in vitro was also confirmed in an in vivo experiment […].
# [4] = tested on: field excitatory postsynaptic potentials (fEPSP); assay: Field excitatory postsynaptic potentials (fEPSP slope) in rat hippocampal slices, CA1; format: cell-based; conditions: nefiracetam 1 µM applied for 10 minutes
# Protocol: Long-lasting facilitation of hippocampal synaptic transmission induced by nefiracetam was investigated. The field excitatory postsynaptic potentials (fEPSP) were recorded in the pyramidal cell layer of the CA1 region by electrical stimulation to the Schaeffer collateral pathway in rat hippocampla slices. Nefiracetam (1 µM) was applied to the hippocampla slices for 10 minutes. After nefiracetam application, fEPSPs were gradually augmented. This effect was observed until 240 minutes had passed since the experiment ended (Table 18-2).
# Next, investigation was made regarding whether the above effect exerted by the present drug differs from the onset mechanism for long-term potentiation (LTP) action exerted when tetanic stimulation was used. The following three groups were compared: (group 1) tetanic stimulation alone; (group 2) nefiracetam + tetanic stimulation; (group 3) tetanic stimulation + nefiracetam. As a result, the fEPSPs that had been potentiated by nefiracetam was not potentiated any longer even when subsequent tetanic stimulation was applied. Likewise, the fEPSPs that had been potentiated by tetanic stimulation was not potentiated any longer even after subsequent application of nefiracetam. The amplitudes of potentiation of these two types of fEPSP were the same as the amplitude of tetanic stimulation. […]
# α4β2 receptor = target: T2, α4β2 receptor (Rattus norvegicus, UniProt P09483+P12390); assay: ACh-evoked currents in α4β2 receptors expressed in Xenopus oocytes (two-electrode voltage clamp); format: cell-based; conditions: for normalized response (%): nef(+), n=5
# T2 construct: expressed in transfected cells; host or cells: Xenopus oocytes injected with in vitro transcribed mRNA
# T2 sequence (P09483 31-630): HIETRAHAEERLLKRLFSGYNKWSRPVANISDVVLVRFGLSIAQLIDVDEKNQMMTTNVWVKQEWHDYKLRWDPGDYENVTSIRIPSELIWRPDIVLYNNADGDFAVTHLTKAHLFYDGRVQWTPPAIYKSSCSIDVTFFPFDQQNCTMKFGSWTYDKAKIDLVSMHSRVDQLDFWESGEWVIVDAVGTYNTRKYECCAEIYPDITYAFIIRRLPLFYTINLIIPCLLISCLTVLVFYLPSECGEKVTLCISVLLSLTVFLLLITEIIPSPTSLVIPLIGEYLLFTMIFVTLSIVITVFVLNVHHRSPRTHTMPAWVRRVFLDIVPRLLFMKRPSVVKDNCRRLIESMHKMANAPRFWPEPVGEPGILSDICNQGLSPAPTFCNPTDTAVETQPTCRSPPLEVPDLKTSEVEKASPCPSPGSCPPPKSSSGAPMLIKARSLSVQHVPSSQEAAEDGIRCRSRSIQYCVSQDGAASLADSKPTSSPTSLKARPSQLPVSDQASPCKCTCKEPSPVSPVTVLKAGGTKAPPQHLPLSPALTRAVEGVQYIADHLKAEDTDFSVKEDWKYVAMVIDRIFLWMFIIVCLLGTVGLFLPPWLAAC
# T2 sequence (P12390 25-500): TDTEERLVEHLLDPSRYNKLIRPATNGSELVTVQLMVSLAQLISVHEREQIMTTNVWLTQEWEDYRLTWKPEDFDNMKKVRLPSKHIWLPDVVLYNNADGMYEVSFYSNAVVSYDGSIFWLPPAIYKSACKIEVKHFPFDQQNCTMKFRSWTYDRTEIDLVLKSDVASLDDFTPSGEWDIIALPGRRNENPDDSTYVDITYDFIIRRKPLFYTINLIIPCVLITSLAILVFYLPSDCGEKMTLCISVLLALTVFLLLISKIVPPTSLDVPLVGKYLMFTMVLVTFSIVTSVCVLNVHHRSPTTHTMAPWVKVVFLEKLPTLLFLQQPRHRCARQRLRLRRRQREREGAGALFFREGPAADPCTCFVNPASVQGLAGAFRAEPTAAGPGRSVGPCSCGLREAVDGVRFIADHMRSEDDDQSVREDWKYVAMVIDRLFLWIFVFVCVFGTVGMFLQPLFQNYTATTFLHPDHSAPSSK
# Protocol: Two-electrode voltage-clamp technique was used to record expression α4β2 or α7 receptors in oocytes. ACh (100 µM) was applied to a single oocyte in the presence or absence of α-BuTX (50 nM) or MCA (3 µM). The holding voltage was -30 or -60 mV for α4β2-nAChR or α7-nAChR, respectively. Downward directions correspond to inward currents.
# as §1
# [5] = 1 h, nefiracetam 1 µM, 60 minutes after treatment, read-out: ACh-evoked currents potentiated, reaching
# [6] = Nefiracetam 0.01 µM, n = 5 to 8, read-out: % of the original amplitude
# [7] = Nefiracetam 0.1 µM, n = 5 to 8, read-out: % of the original amplitude
# [8] = Nefiracetam 1 µM, n = 5 to 8, read-out: % of the original amplitude
# [9] = Nefiracetam 10 µM, n = 5 to 8, read-out: % of the original amplitude
# [10] = in the presence of the inactive PKC inhibitory peptide (NP153; iPKCI)
smiles,measurement,setting,value
"Cc1cccc(C)c1NC(=O)CN1CCCC1=O [nefiracetam, 2-oxo-1-pyrrolidinylacetic acid 2,6-dimethylanilide]",effect on glutamate release,"[1]; 1 µM, depolarization by electrical stimulation",significantly increased
same,Amount of released glutamate,"[1]; St (ES+) electrical stimulation, nefiracetam 1 µM, tetrodotoxin 0.5 µM, α-bungarotoxin 50 nM, mecamylamine 3 µM",3.23 ± 0.5 (a) nmol/mg protein/10min.
same,concentration of maximum potentiation of ACh-evoked currents,α7 receptor,1 µM
same,activity at 1 µM,α7 receptor; [5],195%
same,normalized response (%),"α7 receptor; ACh 0.1 µM, nefiracetam 1 µM",0%
same,normalized response (%),"α7 receptor; ACh 1 µM, nefiracetam 1 µM",1.5%
same,normalized response (%),"α7 receptor; ACh 10 µM, nefiracetam 1 µM",3%
same,normalized response (%),"α7 receptor; ACh 100 µM, nefiracetam 1 µM",35%
same,normalized response (%),"α7 receptor; ACh 1000 µM, nefiracetam 1 µM",100%
same,activity at 0.01 µM,α7 receptor; [6],97.4 ± 5.5%
same,activity at 0.1 µM,α7 receptor; [7],181 ± 10.8%
same,activity at 1 µM,α7 receptor; [8],195 ± 8.8%
same,activity at 10 µM,α7 receptor; [9],116 ± 7.2%
same,currents potentiated to,α7 receptor; [10],193.6%
same,concentration at which potentiation of ACh-evoked currents was observed,α7 receptor; lowest effective concentration,≥ 0.01 µM
same,effect on calcium-dependent chloride currents induced by stimulation from the endogenous muscarinic ACh receptors (FIG. 2),"[2]; oocyte not expressing ACh receptors, atropine-free Ringer, ACh 100 µM",had no effect
same,effect on chloride ion (Cl^-) currents evoked by Ca^2+ influx through the nACh receptor channels,"[2]; oocytes, data not shown",had no effect
same,time after which potentiation of the excitatory postsynaptic potential was still confirmed,"[3]; 7.5 mg/kg intramuscularly, mice",≥ 960 min
same,effect on excitatory postsynaptic potential (PS) in vivo,[3]; administered to animals,significant potentiation
same,time until which augmentation of fEPSPs was observed,[4],≥ 240 min
same,concentration of maximum potentiation of ACh-evoked currents,α4β2 receptor,0.1 µM
same,activity at 1 µM,α4β2 receptor; [5],180%
same,normalized response (%),"α4β2 receptor; ACh 0.1 µM, nefiracetam 1 µM",0%
same,normalized response (%),"α4β2 receptor; ACh 1 µM, nefiracetam 1 µM",2%
same,normalized response (%),"α4β2 receptor; ACh 10 µM, nefiracetam 1 µM",36%
same,normalized response (%),"α4β2 receptor; ACh 100 µM, nefiracetam 1 µM",66%
same,normalized response (%),"α4β2 receptor; ACh 1000 µM, nefiracetam 1 µM",100%
same,activity at 0.0001 µM,"α4β2 receptor; Nefiracetam 0.0001 µM, n = 5 to 8, read-out: % of the original amplitude",100 ± 15.5%
same,activity at 0.001 µM,"α4β2 receptor; Nefiracetam 0.001 µM, n = 5 to 8, read-out: % of the original amplitude",150 ± 13.6%
same,activity at 0.01 µM,α4β2 receptor; [6],212 ± 20.5%
same,activity at 0.1 µM,α4β2 receptor; [7],225 ± 18.9%
same,activity at 1 µM,α4β2 receptor; [8],161 ± 12.6%
same,activity at 10 µM,α4β2 receptor; [9],156 ± 17.6%
same,currents potentiated to,α4β2 receptor; [10],169.3%
same,concentration at which potentiation of ACh-evoked currents was observed,α4β2 receptor; lowest effective concentration,≥ 0.0001 µM
same,% of the original amplitude (Ach-evoked current),"α4β2 receptor; treatment as labelled, nefiracetam 1 µM, GF109203X 100 nM, peptides co-expressed, Mean ± SD, n = 6 to 8",160 ± 5.6%
